Assay results from US9273043B2, “TRPV1 antagonists including dihydroxy substituent and uses thereof” (Purdue Pharma L.P., priority 2011, dated 2016).
Marks after values point to notes of the source that are not given here.

Tested on: MIA-induced osteoarthritis pain
Experiment: MIA-induced osteoarthritis model, weight bearing difference (WBD) test
Assay type: in vivo
Conditions: rat MIA
Excerpt: Osteoarthritis Pain: To assess the actions of a Compound of Formula (I) for the treatment or prevention of osteoarthritis pain, the rat monosodium iodo-acetate (MIA, i.e., sodium 2-iodoacetate) induced osteoarthritis model was used. Intra-articular injection of MIA causes joint degeneration characterized by osteolysis and swelling, with displacement of the patella, and reductions in bone mineral content and bone mineral density (Pomonis et al., “Development and pharmacological characterization of a rat model of osteoarthritis pain,” Pain 114: 339-346 (2005)). Under isoflurane anaesthesia, an intra-articular injection of 2 mg of MIA (Sigma-Aldrich) in 50 μl of saline was administered through the infrapatellar ligament of the knee joint of the right hind leg of the male, 6 week old Crl:CD(SD) rats. Control rats received an intra-articular injection of 50 μl of saline into the knee joint of the right hind leg. The left knee joint of all rats was untreated. […] Thus, in the assessment for osteoarthritis pain relief through gripping capability determinations, the 24 hour time point was the start of the next day when drug-in-vehicle was again orally administered (24 hours after the prior administration) for certain dosages. […] Weight Bearing Difference Test as an Assessment of Osteoarthritis Related Pain: The weight bearing difference test provides an accepted assessment of the efficacy of clinically useful analgesic drugs with respect of osteoarthritis related pain (see Pomonis et al. (2005)). WBD was assessed using a Linton Incapacitance Tester (Linton Instrumentation, Norfolk, UK). Rats were placed on the apparatus so that they were standing on their hind legs, and allowed to acclimate to the apparatus. When stationary, the weight born on each leg was measured over a 3s period. Three readings were taken for each rat at each time point; the average of the three readings was used for data analysis. WBD was expressed as “% WR”, i.e., the percentage of weight born on the MIA-injected right hind leg, using the following formula: [formula] where WR is the weight on the right hind leg and WL is the weight on the left (untreated) hind leg. […] The “% WRR”, i.e., the percentage reversal of the % WR impediment occurring post-MIA injection, was determined for each dosage at each time point using the following formula: [formula] where (% WR)Post-Drug is the % WR determined at each post-oral-administration time-point for each dose of each administered substance, (% WR)Pre-Drug is the % WR determined pre-oral-administration of each administered substance, and (% WR)Control Rat is the % WR determined for control rats (receiving the saline injection into the right hind leg knee joint). With the exception of the controls (i.e., celecoxib, vehicle) where the student's t-test was used, Dunnett's test was conducted for the % WRR.

## CC1CN(c2ncc(C(O)CO)cc2F)CCN1C(=O)Nc1nc2cc(F)ccc2s1.O=C(O)C=CC(=O)O (stereo not shown)
  minimal effective dose: 1 mg/kg
Oral 0.3 mg/kg, 1 h after administration
  % WRR [mean]: 4.3%
Oral 0.3 mg/kg, 3 h after administration
  % WRR [mean]: 12.5%
Oral 0.3 mg/kg, 5 h after administration
  % WRR [mean]: 7.1%
Oral 0.3 mg/kg, 7 h after administration
  % WRR [mean]: 5.0%
Oral 0.3 mg/kg, 24 h after administration
  % WRR [mean]: 0%
Oral 1 mg/kg, 1 h after administration
  % WRR [mean]: 15.2%
Oral 1 mg/kg, 3 h after administration
  % WRR [mean]: 28.8** %
Oral 1 mg/kg, 3 h after administration, listed as product prepared with Compound A155(a) and fumaric acid
  % WRR [mean]: 28.8%
Oral 1 mg/kg, 5 h after administration
  % WRR [mean]: 16.1** %
Oral 1 mg/kg, 5 h after administration, listed as product prepared with Compound A155(a) and fumaric acid
  % WRR [mean]: 16.1%
Oral 1 mg/kg, 7 h after administration
  % WRR [mean]: 8.8* %
Oral 1 mg/kg, 7 h after administration, listed as product prepared with Compound A155(a) and fumaric acid
  % WRR [mean]: 8.8%
Oral 1 mg/kg, 24 h after administration
  % WRR [mean]: 2.1%
Oral 3 mg/kg, 1 h after administration
  % WRR [mean]: 20.9** %
Oral 3 mg/kg, 3 h after administration
  % WRR [mean]: 34.5** %
Oral 3 mg/kg, 5 h after administration
  % WRR [mean]: 23.4** %
Oral 3 mg/kg, 7 h after administration
  % WRR [mean]: 9.5* %
Oral 3 mg/kg, 24 h after administration
  % WRR [mean]: 3.7%
Oral 10 mg/kg, 1 h after administration
  % WRR [mean]: 33.3** %
Oral 10 mg/kg, 3 h after administration
  % WRR [mean]: 44.1** %
Oral 10 mg/kg, 5 h after administration
  % WRR [mean]: 35.0** %
Oral 10 mg/kg, 7 h after administration
  % WRR [mean]: 22.8** %
Oral 10 mg/kg, 24 h after administration
  % WRR [mean]: 9.8%
Oral 20 mg/kg, 1 h after administration
  % WRR [mean]: 41.9** %
Oral 20 mg/kg, 1 h after administration, listed as product prepared with Compound A155(a) and fumaric acid
  % WRR [mean]: 41.9%
Oral 20 mg/kg, 3 h after administration
  % WRR [mean]: 56.9** %
Oral 20 mg/kg, 3 h after administration, listed as product prepared with Compound A155(a) and fumaric acid
  % WRR [mean]: 56.9%
Oral 20 mg/kg, 5 h after administration
  % WRR [mean]: 46.9** %
Oral 20 mg/kg, 5 h after administration, listed as product prepared with Compound A155(a) and fumaric acid
  % WRR [mean]: 46.9%
Oral 20 mg/kg, 7 h after administration
  % WRR [mean]: 35.6** %
Oral 20 mg/kg, 7 h after administration, listed as product prepared with Compound A155(a) and fumaric acid
  % WRR [mean]: 35.6%
Oral 20 mg/kg, 24 h after administration
  % WRR [mean]: 19.8** %
Oral 20 mg/kg, 24 h after administration, listed as product prepared with Compound A155(a) and fumaric acid
  % WRR [mean]: 19.8%
